According to article PMC10706121, “Bioactive Polyketides from the Natural Complex of the Sea Urchin-Associated Fungi Penicillium sajarovii KMM 4718 and Aspergillus protuberus KMM 4747” (International Journal of Molecular Sciences, 2023):
Converted amounts (≈) assume the structure as drawn. “Also recorded” adds a separate entry of the source. Where two headings read alike, the source gives them in different places.

Key:
[1] = target: T1, urease from Canavalia ensiformis (Canavalia ensiformis, UniProt P07374); assay: Urease inhibition assay (indophenol method, cell-free); type: biochemical
T1 construct: purchased Sigma
T1 sequence (P07374 whole entry, looked up): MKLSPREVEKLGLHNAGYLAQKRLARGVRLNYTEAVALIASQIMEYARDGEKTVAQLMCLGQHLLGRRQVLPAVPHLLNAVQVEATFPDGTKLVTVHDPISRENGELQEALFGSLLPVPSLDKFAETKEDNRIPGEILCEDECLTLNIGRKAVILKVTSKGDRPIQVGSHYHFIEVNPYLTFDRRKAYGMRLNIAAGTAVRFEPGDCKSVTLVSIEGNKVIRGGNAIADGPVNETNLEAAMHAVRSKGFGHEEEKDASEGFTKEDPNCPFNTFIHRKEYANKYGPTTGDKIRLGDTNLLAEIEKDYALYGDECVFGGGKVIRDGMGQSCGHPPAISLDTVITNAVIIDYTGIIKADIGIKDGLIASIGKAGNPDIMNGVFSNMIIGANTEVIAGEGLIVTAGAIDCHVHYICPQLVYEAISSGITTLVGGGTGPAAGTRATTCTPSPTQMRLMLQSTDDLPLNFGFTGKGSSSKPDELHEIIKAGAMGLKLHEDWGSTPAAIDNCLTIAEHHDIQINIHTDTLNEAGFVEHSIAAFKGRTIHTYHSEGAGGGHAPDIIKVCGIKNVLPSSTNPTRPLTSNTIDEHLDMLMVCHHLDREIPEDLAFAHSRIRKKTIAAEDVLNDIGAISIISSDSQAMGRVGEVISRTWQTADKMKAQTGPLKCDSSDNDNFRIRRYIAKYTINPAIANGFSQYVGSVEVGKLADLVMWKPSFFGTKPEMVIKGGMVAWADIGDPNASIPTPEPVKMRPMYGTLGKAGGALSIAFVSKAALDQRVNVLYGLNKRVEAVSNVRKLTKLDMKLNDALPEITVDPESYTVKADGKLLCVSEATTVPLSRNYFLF
Procedure: A reaction mixture consisting of 25 µL of enzyme solution (urease from Canavalia ensiformis, Sigma, 1U final concentration) and 5 µL of test compounds dissolved in water (10–300.0 µM final concentration) was preincubated at 37 °C for 60 min in 96-well plates. Then, 55 µL of phosphate-buffered solution with […] of urea was added to each well and incubated at 37 °C for 10 min. The urease inhibitory activity was estimated by determining ammonia production using the indophenol method. Briefly, 45 µL of phenol reagent (1% w/v phenol and 0.005% w/v sodium nitroprusside) and 70 µL of alkali reagent (0.5% w/v NaOH and 0.1% active chloride NaClO) were added to each well. The absorbance was measured after 50 min at 630 nm using a MultiskanFS microplate reader (Thermo Scientific Inc., Beverly, MA, USA). All reactions were performed in triplicate in a final volume of 200 µL. The pH was maintained at 7.3–7.5 in all assays. DMSO 5% was used as a positive control.

Candida albicans KMM 455 = assay: Antimicrobial activity, inhibition of microbial growth (OD620); type: cell-based; details: Candida albicans, KMM455; compounds tested at 100 µM; read-out: Inhibition of Microbial Growth, C. albicans
Procedure: (§1) The yeast-like fungi of Candida albicans KMM 455 and bacterial strains Staphylococcus aureus ATCC 21027 and Escherichia coli VKPM (B-7935) (Collection of Marine Microorganisms PIBOC FEB RAS) were cultured on solid-medium Mueller Hinton broth with agar (16.0 g/L) in a Petri dish at 37 °C for 24 h.
(§2) The assays were performed in 96-well microplates in appropriate Mueller Hinton broth. Each well contained 90 µL of bacterial or of a yeast-like fungi suspension (10^9 CFU/mL). Then, 10 µL of a compound diluted at concentrations ranging from 1.5 to 100.0 µM using a 2-fold dilution was added (DMSO concentration < 1%). Culture plates were incubated overnight at 37 °C, and the OD620 was measured using a Multiskan FS spectrophotometer (Thermo Scientific Inc., Beverly, MA, USA). The antibiotic gentamicin and antifungal agent nitrofungin were used as positive controls at 1 mg/mL; 1% DMSO in PBS served as a negative control.

[2] = tested on: Escherichia coli VKPM (B-7935); assay: as above; type: cell-based; details: Escherichia coli, compounds tested at 100 µM; read-out: Inhibition of Microbial Growth, E. coli
Procedure: as §1, §2

[3] = tested on: Staphylococcus aureus ATCC 21027; assay: as above; type: cell-based; details: Staphylococcus aureus, ATCC21027, compounds tested at 100 µM; read-out: Inhibition of Microbial Growth, S. aureus
Procedure: as §1, §2

[4] = Cell viability assay (MTT), cytotoxic activity; type: cell-based, human; details: 24 h, MTT; for viability at 24 h, 10 µM / viability at 24 h, 100 µM: percent of control
Procedure: The HepG2 and H9c2 cells were cultured in DMEM medium (Biolot, St. Petersburg, Russia) containing 10% fetal bovine serum (Biolot, St. Petersburg, Russia) and 1% penicillin/streptomycin (Biolot, St. Petersburg, Russia) at 37 °C in a humidified atmosphere with 5% (v/v) CO2.
The HepG2 and H9c2 cells were seeded at concentrations of 5× 10^3 and 3×10^3 cell/well, respectively, and the experiments were started after 24 h. The compounds at concentrations up to 100 µM were added into the wells for 24 h, and the viability of the cells was measured by an MTT (3-(4,5-dimethylthiazol-2-yl)-2,5-diphenyltetrazolium bromide) assay, which was performed according to the manufacturer’s instructions (Sigma-Aldrich, Munich, Germany). All compounds were dissolved with DMSO so that the final concentration of DMSO in the cell culture was not more than 1%. Moreover, DMSO was used as a control. The absorbance of the resulting solution was measured at 570 nm with a microplate reader MultiscanFC (ThermoLabsystems Inc., Beverly, MA, USA). The results are presented as a percent of the control data and calculated IC50.

Bacillus subtilis = tested on: Bacillus subtilis; set-up: method as in doi:10.1007/s11274-009-0062-y; details: cited from earlier work
Escherichia coli = tested on: Escherichia coli; set-up: method as in doi:10.1007/s11274-009-0062-y; details: cited from earlier work
Pseudomonas fluorescens = tested on: Pseudomonas fluorescens; set-up: method as in doi:10.1007/s11274-009-0062-y; details: cited from earlier work
Candida albicans = tested on: Candida albicans; set-up: method as in doi:10.1007/s11274-009-0062-y; details: cited from earlier work
[5] = human, HepG2 hepatocarcinoma cells

With Cc1cc(=O)c2c(C)cc(O)cc2o1 [Compound 4, altechromone A] the IC50 [1] was greater than 100 µM, the “effect on urease activity” value ([1]; at concentrations of up to 100 µM) was “no effect; also recorded: very poor” and the inhibition at 100 µM (Candida albicans KMM 455) was 11.1 ± 1.3%. It also gave an inhibition at 100 µM [2] of 13.6 ± 0.3%, an inhibition at 100 µM [3] of 30.1 ± 1.2% and an IC50 at 24 h ([4]; human, HepG2 cells (human hepatocarcinoma), read-out: HepG2 IC50 (cytotoxic effect)) greater than 100 µM. It also gave a viability at 24 h, 10 µM [4, 5] of 99.2 ± 6.5%, a viability at 24 h, 100 µM [4, 5] of 92.6 ± 4.1% and a viability at 24 h, 10 µM ([4]; rat, H9c2 cardiomyocyte cells) of 110 ± 2.9%. For the same compound, the viability at 24 h, 100 µM ([4]; rat, H9c2 cardiomyocyte cells) was 96.5 ± 3.6%, the IC50 at 24 h ([4]; rat, H9c2 cells (normal rat cardiomyocytes), read-out: H9c2 IC50 (cytotoxic effect)) was greater than 100 µM and the “MIC against Bacillus subtilis” value (Bacillus subtilis) was 3.9 µg/mL (≈ 20.5 µM). The “MIC against Escherichia coli” value (Escherichia coli) was 3.9 µg/mL (≈ 20.5 µM), the “MIC against Pseudomonas fluorescens” value (Pseudomonas fluorescens) was 1.8 µg/mL (≈ 9.46 µM) and the “MIC against Candida albicans” value (Candida albicans) was 3.9 µg/mL (≈ 20.5 µM).
